5 compounds from US20210038589A1, “USES, COMPOSITIONS AND METHODS” (priority 2018, published 2021) can be followed below.

In experiment [1] the test system is gamma oscillations in mouse hippocampal slices. As to the kind of experiment: Prevention of Aβ-induced degradation of kainate-induced gamma oscillations in hippocampal slices (interface chamber). Type of experiment: cell-based. Particulars: 50 nM Aβ in last 15 min, 100 nM KA. As for the experimental part: Previously we have characterized the effects of acute Aβ on the hippocampal circuitry of WT mice. […] During the last 15 min 50 nM Aβ was added to the incubation solution. […] Control experiments were also performed by incubating slice just with ACSF for 1 h (with Aβ present for the last 15 min) or incubating just with ACSF for 1 h. […] Pmzd 10 μM: 9.95±1.82×10^-9V^2, n=10, p<0.0001 vs Aβ, FIGS. 4A,B,C,F, light and dark green, respectively). […] Horizontal sections (350 μm thick) of the ventral hippocampi of both hemispheres were prepared with a Leica VT1200S vibratome (Leica Microsystems). Immediately after cutting, slices were transferred into a humidified interface holding chamber containing standard ACSF (in mM): 124 NaCl, 30 NaHCO3, 10 glucose, 1.25 NaH2PO4, 3.5 KCl, 1.5 MgCl2, 1.5 CaCl2, continuously supplied with humidified carbogen. The chamber was held at 34° C. during slicing and subsequently allowed to cool down to room temperature ( 22° C.) for a minimum of 1 hour. Recordings were carried out in hippocampal area CA3 with borosilicate glass microelectrodes, pulled to a resistance of 3-7 MΩ. Local field potential (LFP) were recorded using microelectrodes filled with ACSF placed in CA3 stratum pyramidale. LFP oscillations were elicited by applying kainic acid (100 nM) to the extracellular bath, Interface chamber LFP recordings were performed with a 4-channel […] amplifier (University of Cologne, Germany). Submerged chamber LFP recordings and patch-clamp recordings were performed using a Multiclamp 700B (Molecular Devices, CA, USA). In order to maintain stable LFP oscillations all recordings were performed at 34° C. with a perfusion rate of 3-5 ml per minute of aerated ACSF containing 100 nM Kainate. The oscillations were allowed to stabilize for at least 20 minutes before any recordings were performed. Power spectra density plots (from 60 s long LFP recordings) were calculated in averaged Fourier-segments of 8192 points using Axograph X (Kagi, Berkeley, Calif., USA). […] Coefficient of rhythmicity (Cr) was calculated in order to assess the rhythmicity of gamma oscillations (26, 27) and was defined as Cr=(α-β)/(α+β) were α corresponds to the value of the height of the second peak and β to the first valley in the normalized autocorrelogram. […] Only recordings having Cr≥0.01 were considered rhythmic.

For experiment [2] the test system is unchanged. Kind of experiment: Rescue of gamma oscillations previously degraded by Aβ in hippocampal slices (submerged chamber). Particulars: Aβ still present. Format: cell-based.
Protocol: Hippocampal slices were placed in a submerged recording chamber where gamma oscillations were induced by bath perfusion of 100 nM KA and allowed to stabilize for 20-30 min. Continuous recordings of LFP gamma oscillations were performed in 4 different conditions (FIG. 5). All groups were initially activated with Kainate. In a control group of slices oscillations were recorded for 40 min after stabilization without any other compound addition (control, n=5, grey). All other groups were perfused with 1 μM Aβ after stabilization of the oscillations for a minimum of 20 min. For these experiments the concentration of Aβ applied was increased to 1 μM in order to overcome the method-dependent lower signal amplitude due to the submerged recording conditions (8).
Hippocampal slices were placed on a submerged recording chamber where gamma oscillations were induced by bath perfusion of 100 nM Kainate and allowed to stabilize for 20-30 minutes. Continuous recordings of LFP gamma oscillations were performed in 3 different conditions. All groups were initially activated with kainate. In a control group of slices oscillations were recorded for 40 minutes after their stabilization without any other compound addiction (control, n=5; see FIG. 5). All the other groups were perfused with Aβ 1 μM after the stabilization of the oscillations for a minimum of 20 minutes.

With `Clc1ccc(N2CCN(Cc3c[nH]c4ncccc34)CC2)cc1` [L745,870], the gamma oscillation power in experiment [1] (1 h incubation with 500 nM compound) is 1.61±0.52 ×10^−9V^2. Turning to `CC(C)(C)CCN1C[C@@H]2[C@@H](CNC(=O)c3cc(Cl)cc(Cl)c3)[C@@H]2C1` [ML-218], the “gamma power after treatment application, relative to Aβ” value in experiment [2] (5 μM compound applied after 20 min of 1 μM Aβ) is listed as 2.16±0.53 of Aβ. Consider `CC(C)[C@H]1c2ccc(F)cc2CC[C@@]1(CCN(C)CCCc1nc2ccccc2[nH]1)OC(=O)C1CC1` [NNC55-0396], for which the “gamma power after treatment application, relative to Aβ” value in experiment [2] (10 μM compound applied after 20 min of 1 μM Aβ) is reported as 1.85±0.15 of Aβ.

With `CC1CCN(CC[C@H]2CCCN2S(=O)(=O)c2cccc(O)c2)CC1` [SB-269970, ®-3-(2-(2-(4-methylpiperidin-1-yl)ethil)pyrrolidine-1-sulfonyl) phenol], the gamma oscillation power in experiment [1] (1 h incubation with 1 μM compound) is 1.47±0.24 ×10^−9V^2.

As to `CCN1CCCC1CNC(=O)c1cc(S(N)(=O)=O)ccc1OC` (centres unmarked) [Sulpiride], the gamma oscillation power in experiment [1] (1 h incubation with 5 μM compound) is recorded as 2.23±0.52 ×10^−9V^2.
